Drawing on ChEMBL document CHEMBL1126190, “3-[4-[1-(6-Fluorobenzo[b]thiophen-3-yl)-4-piperazinyl]butyl]- 2,5,5-trimethyl-4-thiazolidinone: a new atypical antipsychotic agent for the treatment of schizophrenia” (J Med Chem, 1992), this text covers Ki and ED50 for three compounds.

pKi: −log10 of the molar value.

Assay [1] addresses D(1A) dopamine receptor (Rattus norvegicus, UniProt P18901). Description: Compound was evaluated for in vitro binding affinity towards Dopamine receptor D1 in striatum using [3H]- SCH 23390 as radioligand. It is filed as tissue-based.
In assay [2] the test system is Rattus norvegicus. Put plainly: Compound was evaluated for pole-climb avoidance in rat after peroral administration. It is filed as functional. The following applies: po.
Assay [3] relates to Mus musculus. Description: Compound was evaluated for inhibition of apomorphine-induced climbing in mouse after intraperitoneal administration. Format: functional. The following applies: ip.
Assay [4] deals with Mus musculus. Put plainly: Compound was evaluated for inhibition of apomorphine-induced climbing in mouse after peroral administration. It is filed as functional. The following applies: po.
The subject of assay [5] is Rattus norvegicus. Put plainly: Compound was evaluated for inhibition of apomorphine-induced stereotypy behavior in rats after intraperitoneal administration. Format: functional. The following applies: ip.
For assay [6], the target named is T1, 5-hydroxytryptamine receptor 1A (Rattus norvegicus, UniProt P19327).
T1 sequence (P19327 whole entry): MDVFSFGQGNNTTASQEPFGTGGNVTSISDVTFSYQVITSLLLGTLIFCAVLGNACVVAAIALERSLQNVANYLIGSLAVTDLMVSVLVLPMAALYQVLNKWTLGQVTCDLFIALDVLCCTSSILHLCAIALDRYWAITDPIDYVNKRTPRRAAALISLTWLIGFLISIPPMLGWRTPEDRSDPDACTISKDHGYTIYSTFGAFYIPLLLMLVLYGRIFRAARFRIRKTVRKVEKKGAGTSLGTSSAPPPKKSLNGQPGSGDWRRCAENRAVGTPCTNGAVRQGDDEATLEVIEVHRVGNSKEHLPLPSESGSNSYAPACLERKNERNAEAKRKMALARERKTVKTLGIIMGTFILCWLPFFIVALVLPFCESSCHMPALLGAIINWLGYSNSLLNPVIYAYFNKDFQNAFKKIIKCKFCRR
Description: Compound was evaluated for in vitro binding affinity towards serotonin 5-hydroxytryptamine 1A receptor receptor in rat hippocampus using [3H]8-OH-DPAT as radioligand. Format: tissue-based.

In assay [7] the test system is Rattus norvegicus. Description: Compound was evaluated for intracranial self-stimulation in rat after intraperitoneal administration. It is filed as functional. The note with it: ip.
The target in assay [8] is Serotonin 2 (5-HT2) receptor (Rattus norvegicus, UniProt P30994+P08909+P14842). Description: Compound was evaluated for in vitro binding affinity towards serotonin 5-hydroxytryptamine 2 receptor in rat cortex using [3H]- spiperone as radioligand.
The subject of assay [9] is Rattus norvegicus. Description: Compound was evaluated for pole-climb avoidance (escape failures) in rat after peroral administration. It is filed as functional. The note with it: po.

Sequence of D(1A) dopamine receptor (P18901 whole entry): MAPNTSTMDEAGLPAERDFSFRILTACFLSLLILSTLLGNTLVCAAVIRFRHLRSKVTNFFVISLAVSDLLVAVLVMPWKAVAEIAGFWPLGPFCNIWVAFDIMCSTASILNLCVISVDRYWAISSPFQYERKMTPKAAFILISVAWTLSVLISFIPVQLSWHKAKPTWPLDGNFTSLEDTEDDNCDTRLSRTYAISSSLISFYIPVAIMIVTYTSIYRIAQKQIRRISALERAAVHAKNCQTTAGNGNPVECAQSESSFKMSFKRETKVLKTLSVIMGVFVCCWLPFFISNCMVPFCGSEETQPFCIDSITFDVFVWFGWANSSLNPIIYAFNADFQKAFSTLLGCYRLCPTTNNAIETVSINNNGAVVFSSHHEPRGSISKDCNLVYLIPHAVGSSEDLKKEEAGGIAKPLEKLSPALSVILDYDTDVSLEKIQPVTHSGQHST

On to `CC1SC(C)(C)C(=O)N1CCCCN1CCN(c2csc3cc(F)ccc23)CC1` (stereo unspecified), for which the pKi (as a rule, −log10 of the Ki, conventionally taken in molar units) in assay [1] is 5.56; in assay [6] it was 7.40. For the same compound, the ED50 (commonly the dose at which the effect has come halfway, by size or by number of responders) in assay [2] was 5.46 mg/kg; in assay [3], 2.5 mg/kg; in assay [4], 15.4 mg/kg; in [5] it was 61.4 mg/kg; in assay [7] it was 4.7 mg/kg; in assay [9] it was more than 20 mg/kg. Also, the Ki (commonly a measure of affinity in units of concentration, obtained from inhibition or displacement) in assay [8] is 0.02 µM.
`O=C(CCCN1CCC(O)(c2ccc(Cl)cc2)CC1)c1ccc(F)cc1` [HALOPERIDOL]: the ED50 in assay [2] was 1.1 mg/kg; in [5] it was 0.576 mg/kg; in [7] it was 0.077 mg/kg; in assay [9], 14.1 mg/kg.
As to `CN1CCN(C2=Nc3cc(Cl)ccc3Nc3ccccc32)CC1` [CLOZAPINE], the figures for the ED50 in assay [2], in [5] and in assay [9] were 12.7 mg/kg, more than 40 mg/kg and 33.1 mg/kg, respectively.
